Data: US9999222B2, “Herbicidal combination comprising azines” (BASF SE, priority 2014, dated 2018)
Several values for one entry are separate records, joined by “and”; a condition that tells them apart may be missing. Identical values can stand only once. Like-named read-outs stand apart in the source and are kept apart here.

What was measured:
Experiment in all cases: Greenhouse test, pre-emergence treatment
GALAP = type: in vivo, Galium aparine; conditions: pre-emergence
Outline: (§1)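 Damage was rated on a 0-100 scale, with 100 meaning no emergence or full destruction of aerial parts. Observed combination effects were set against the additive Colby expectation E=X+Y−(X·Y/100). Spray liquor was water-based, from 10% emulsion concentrates, applied pre-emergence right after sowing in loamy sand (about 3.0% humus). Plants were held at 10-25 °C or 20-35 °C for 2 to 4 weeks.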

KCHSC = type: in vivo, Kochia scoparia; conditions: pre-emergence
Outline: as §1

ECHCG = type: in vivo, Echinocloa crus-galli
Outline: as §1

COMBE = type: in vivo, Commelina benghalensis; conditions: pre-emergence
Outline: as §1

IPOHE = type: in vivo, Ipomoea hederacea
Outline: as §1

LOLMU = type: in vivo, Lolium multiflorum; conditions: Lolium multiflorum, pre-emergence, 480 h, pre-emergence, read-out: observed % activity 20 DAT
Outline: as §1

[1] = Galium aparine, 480 h, 4 g ai/ha, read-out: observed % activity 20 DAT
[2] = Galium aparine, 480 h, 8 g ai/ha, read-out: observed % activity 20 DAT
[3] = Bassia scoparia, 480 h, 4 g ai/ha, read-out: observed % activity 20 DAT
[4] = Bassia scoparia, 480 h, 8 g ai/ha, read-out: observed % activity 20 DAT
[5] = Echinochloa crus-galli, 480 h, 4 g ai/ha, read-out: observed % activity 20 DAT
[6] = Commelina benghalensis, 480 h, 4 g ai/ha, read-out: observed % activity 20 DAT
[7] = Ipomoea hederacea, 480 h, 4 g ai/ha, read-out: observed % activity 20 DAT

Nc1nc(Nc2c(F)c(F)cc(F)c2F)nc(C2(F)CCCC2)n1 [compound 9, 6-(1-fluorocyclopentyl)-N4-(2,3,5,6-tetrafluorophenyl)-1,3,5-triazine-2,4-diamine]
observed % activity 20 DAT (GALAP; GALAP, individual, use rate 8 g ai/ha): 50% | pest or weed control at 4 g/ha (GALAP; [1]): 55% | pest or weed control at 8 g/ha (GALAP; [2]): 90% | inhibition at 8 g/ha (GALAP; Galium aparine, 480 h, GALAP, individual, use rate 8 g ai/ha, read-out: observed % activity 20 DAT): 70% | inhibition at 16 g/ha (GALAP; Galium aparine, 480 h, GALAP, individual, use rate 16 g ai/ha, read-out: observed % activity 20 DAT): 60% | inhibition at 4 g/ha (GALAP; [1]): 55% | inhibition at 8 g/ha (GALAP; [2]): 70% | inhibition at 16 g/ha (GALAP; Galium aparine, 480 h, 16 g ai/ha, read-out: observed % activity 20 DAT): 60% | pest or weed control at 4 g/ha (KCHSC; [3]): 50% | pest or weed control at 8 g/ha (KCHSC; [4]): 85% | inhibition at 7 g/ha (KCHSC; Bassia scoparia, 480 h, KCHSC, individual, use rate 7 g ai/ha, read-out: observed % activity 20 DAT): 75% | inhibition at 8 g/ha (KCHSC; Bassia scoparia, 480 h, KCHSC, individual, use rate 8 g ai/ha, read-out: observed % activity 20 DAT): 90% | inhibition at 16 g/ha (KCHSC; Bassia scoparia, 480 h, KCHSC, individual, use rate 16 g ai/ha, read-out: observed % activity 20 DAT): 90% | inhibition at 4 g/ha (KCHSC; [3]): 70% | inhibition at 8 g/ha (KCHSC; [4]): 75% | inhibition at 16 g/ha (KCHSC; Bassia scoparia, 480 h, 16 g ai/ha, read-out: observed % activity 20 DAT): 90% | observed % activity 20 DAT (KCHSC; KCHSC, individual, use rate 16 g ai/ha): 80% | observed % activity 20 DAT (KCHSC; 16 g ai/ha): 80% | observed % activity 20 DAT (ECHCG; 2 g ai/ha): 70% | inhibition at 2 g/ha (ECHCG; Echinochloa crus-galli, 480 h, 2 g ai/ha, read-out: observed % activity 20 DAT): 75% | inhibition at 4 g/ha (ECHCG; [5]): 90% | pest or weed control at 4 g/ha (ECHCG; [5]): 85% | observed % activity 20 DAT (COMBE; COMBE, individual, use rate 16 g ai/ha): 35% and 15% | pest or weed control at 4 g/ha (COMBE; [6]): 25% | pest or weed control at 8 g/ha (COMBE; Commelina benghalensis, 480 h, 8 g ai/ha, read-out: observed % activity 20 DAT): 65% | inhibition at 8 g/ha (COMBE; Commelina benghalensis, 480 h, COMBE, individual, use rate 8 g ai/ha, read-out: observed % activity 20 DAT): 20% | inhibition at 4 g/ha (COMBE; [6]): 25% | inhibition at 16 g/ha (COMBE; Commelina benghalensis, 480 h, 16 g ai/ha, read-out: observed % activity 20 DAT): 20% | observed % activity 20 DAT (COMBE; 16 g ai/ha): 35% | observed % activity 20 DAT (IPOHE; 16 g ai/ha): 15% | observed % activity 20 DAT (IPOHE; IPOHE, individual, use rate 16 g ai/ha): 15% | inhibition at 4 g/ha (IPOHE; [7]): 0% | pest or weed control at 4 g/ha (IPOHE; [7]): 0% | inhibition at 16 g/ha (IPOHE; Ipomoea hederacea, 480 h, 16 g ai/ha, read-out: observed % activity 20 DAT): 10% | inhibition at 16 g/ha (IPOHE; Ipomoea hederacea, 480 h, IPOHE, individual, use rate 16 g ai/ha, read-out: observed % activity 20 DAT): 10% | inhibition at 2 g/ha (LOLMU; 2 g ai/ha): 0% | pest or weed control at 2 g/ha (LOLMU; 2 g ai/ha): 0% | inhibition at 8 g/ha (LOLMU; 8 g ai/ha): 75% | pest or weed control at 8 g/ha (LOLMU; 8 g ai/ha): 75%
